Results as given in patent US20110104159A1, “COMPOSITIONS AND METHODS FOR TREATING, CONTROLLING, REDUCING, AMELIORATING, OR PREVENTING ALLERGY” (priority 2006, published 2011).
Where “and” joins values, the source holds several entries; their conditions need not be identical. Equal entries are not always repeated. Where two headings read alike, the source gives them in different places.

How the values were obtained:
[1] = tested on: rabbit paracentesis model; assay: Pupillary diameter measurement, rabbit paracentesis model; assay type: in vivo; conditions: for Pupillary diameter T2: −5 min: 5 min before first paracentesis; for Pupillary diameter T2: −5 min / Pupillary diameter T3: +115 min / Pupillary diameter Δ(T3 − T1) / Pupillary diameter T1: −180 min: individual eye, listed as BOL; for Pupillary diameter T3: +115 min: 5 min before second paracentesis; for Pupillary diameter Δ(T3 − T1): +115 min minus −180 min; for Pupillary diameter T1: −180 min: basal; for Mean (mm) Δ(T3 − T1) of pupillary diameter: group mean, n=8 eyes
Description: (§1) Each rabbit was placed in a restraint device and tagged with the alphanumeric code. The formulations were instilled (50 μl) into the conjunctival sac of both eyes 180, 120, 90 and 30 min before the first paracentesis; then 15, 30, 90 min after the first paracentesis. To perform the first paracentesis the animals were anaesthetized by intravenous injection of 5 mg/kg Zoletil® (Virbac; 2.5 mg/kg tiletamine HCl and 2.5 mg/kg zolazepam HCl) and one drop of local anesthetic (Novesina®, Novartis) was administered to the eye. Anterior chamber paracentesis was performed with a 26 G needle attached to a tuberculin syringe; the needle was introduced into the anterior chamber through the cornea, taking care not to damage the tissues. Two hours after the first paracentesis, the animals were sacrificed with 0.4 ml Tanax® (Intervet International B.V.) and the second paracentesis was performed. About 100 μl of aqueous humor were removed at the second paracentesis. Aqueous humor was immediately split in four aliquots and stored at −80° C. until analysis. Then both eyes were enucleated and the iris-ciliary body was carefully excised, placed in polypropylene tubes, and stored at −80° C. until analysis.
The pupillary diameter of both eyes was measured with a Castroviejo caliper 180 min and 5 min before the first paracentesis and 5 min before the second paracentesis.

[2] = tested on: rabbit paracentesis model; assay: Clinical evaluation by slit lamp (clinical score), rabbit paracentesis model; assay type: in vivo; parameters: key to Clinical Score −180 min / Clinical Score −5 min / Clinical Score +115 min: 0: normal; 1: discrete dilatation of iris and conjunctival vessels; 2: moderate dilatation of iris and conjunctival vessels; 3: intense iridal hyperemia with flare in the anterior chamber; 4: intense iridal hyperemia with flare in the anterior chamber and presence of fibrinous exudates; conditions: for Clinical Score −5 min: 5 min before first paracentesis; for Clinical Score −5 min / Clinical Score +115 min / Clinical Score −180 min: individual eye, scale 0-4; for Clinical Score +115 min: 5 min before second paracentesis; for Clinical Score −180 min: basal
MPO = assay: Myeloperoxidase (MPO) activity in iris-ciliary body; assay type: in vivo, Rabbit; conditions: for MPO activity in iris-ciliary body, statistical comparison with CTR: p<0.001; for Mean MPO Unit/g (MPO activity in iris-ciliary body samples): group mean, after the second paracentesis; for MPO Unit/g (raw data of MPO activity in iris-ciliary body samples): individual eyes (DX/SX) of rabbits, samples collected after the second paracentesis, listed as BOL
Description: 2.3.2.1 Phosphate Buffer (50 mM; pH=6)
3.9 g of NaH2PO4 2H2O were dissolved in a volumetric flask to 500 ml with water. The pH was adjusted to pH=6 with 3N NaOH.
0.5 g of hexa-decyl-trimethyl-ammonium bromide was dissolved in 100 ml phosphate buffer.
The solution was prepared freshly. Ten microliters of H2O2 (30 wt. %) were diluted to 1 ml with water (solution A). 7.5 mg o-dianisidine 2HCl were dissolved in 45 ml of phosphate buffer and 75 μl of solution A were added.
as §1
The activity of MPO was measured as previously described by Williams et al. The iris-ciliary bodies were carefully dried, weighed and immersed in 1 ml of hexa-decyl-trimethyl-ammonium bromide solution. Then, the samples were sonicated for 10 sec on ice by a ultrasound homogenizer (HD 2070, Bandelin electronic), freeze-thawed three times, sonicated for 10 sec and centrifuged at 14,000 g for 10 min to remove cellular debris. An aliquot of the supernatant (40-200 μl) was diluted to 3 ml with the o-dianisidine 2HCl/H2O2 solution. The change in absorbance at 460 nm was continuously monitored for 5 min by a spectrophotometer (UV/Vis Spectrometer Lambda EZ 201; Perkin Elmer). The slope of the line (Δ/min) was determined for each sample and used to calculate the number of units of MPO in the tissue as follows:
where ε=11.3 mM^−1. Values were expressed as units of MPO/g of tissue.

human eosinophils = assay: Cytokine-sustained (GM-CSF or IL-5) eosinophil survival; assay type: cell-based; conditions: for IC50: Homo sapiens, Eosinophil, 48 h, 0.1% FBS
CXCR4 receptor = CXCR4 receptor surface expression in human eosinophils (FACS), transactivation marker; assay type: cell-based; conditions: 24 h
Description: (§2) FACS was performed to measure cell surface expression of annexin I and CXCR4 as indicators of glucocorticoid-mediated transactivation. Human eosinophils were double-stained with a red dye-conjugated secondary antibody to trace changes in the expression of CXCR4 or I, and a green dye-conjugated annexin V to exclude apoptotic cells from the analysis. The cells were counted and transferred to a 24-well plate (10^6 cells/well) and serum-starved (0.1% FBS) for 24 h.
(§3) At the end of the incubation, the cells were harvested and each sample was divided into two tubes to run parallel tests for annexin I and CXCR4 surface expression. After rinsing all samples with a HBSS solution containing 1% BSA, the cells were incubated for 45 min on a shaker with anti-annexin I or anti-CXCR4 antibodies (1:200) on ice; the negative control was incubated with an isotype-specific control antibody.
(§4) The cells were then washed twice with HBSS/BSA buffer before exposure to the Alexa Fluor® 568-conjugated secondary antibody. The excess of unbound antibody was washed away, and all samples were incubated for 15 min in the presence of annexin V-Fluos. […] Electronic gates were set on annexin V-negative cells and CXCR4 or annexin I-positive cells. Data from 10,000 cells/sample were analyzed using dedicated software (Becton, Dickinson and Company). The % of CXCR4 or annexin I positive cells was calculated.

annexin I = assay: Annexin I surface expression in human eosinophils (FACS), transactivation marker; assay type: cell-based; conditions: 10 000 nM
Description: as §2, §3, §4

[3] = tested on: murine thymocyte line S49; conditions: murine thymocyte line S49 [26]; cited from earlier work
[4] = conditions similar to the in vitro models used [28]; cited from earlier work

SMILES: Cc1ccc2c(NC[C@](O)(CC(C)(C)c3cc(F)cc4c3OCC4)C(F)(F)F)cccc2n1 [BOL-303242-X, (R)-1,1,1-Trifluoro-4-(5-fluoro-2,3-dihydrobenzofuran-7-yl)-4-methyl-2-{[(2-methyl-5-quinolyl)amino]methyl}pentan-2-ol]
- Pupillary diameter T2: −5 min ([1]; 0.1% topical): 6.5 mm (3×) and 7.0 mm (4×) and 7.5 mm
- Pupillary diameter T3: +115 min ([1]; 0.1% topical): 5.0 mm (2×) and 6.0 mm (3×) and 6.5 mm and 5.5 mm (2×)
- Pupillary diameter Δ(T3 − T1) ([1]; 0.1% topical): −1.5 mm (4×) and −0.5 mm (2×) and −1.0 mm (2×)
- Pupillary diameter T1: −180 min ([1]; 0.1% topical): 6.5 mm (4×) and 7.0 mm (3×) and 7.5 mm
- Pupillary diameter T2: −5 min ([1]; 0.5% topical): 8.0 mm (3×) and 7.0 mm (4×) and 7.5 mm
- Pupillary diameter T3: +115 min ([1]; 0.5% topical): 6.5 mm (4×) and 6.0 mm (2×) and 7.0 mm (2×)
- Pupillary diameter Δ(T3 − T1) ([1]; 0.5% topical): −1.5 mm (2×) and −0.5 mm (2×) and −1.0 mm (4×)
- Pupillary diameter T1: −180 min ([1]; 0.5% topical): 8.0 mm (3×) and 7.0 mm (3×) and 7.5 mm (2×)
- Mean (mm) Δ(T3 − T1) of pupillary diameter ([1]; 0.5% topical): −1.0 mm
- Pupillary diameter T2: −5 min ([1]; 1% topical): 6.0 mm (2×) and 6.5 mm (4×) and 7.0 mm (2×)
- Pupillary diameter T3: +115 min ([1]; 1% topical): 5.5 mm (2×) and 5.0 mm (4×) and 6.0 mm (2×)
- Pupillary diameter Δ(T3 − T1) ([1]; 1% topical): −0.5 mm (3×) and −1.5 mm (2×) and −1.0 mm (3×)
- Pupillary diameter T1: −180 min ([1]; 1% topical): 6.0 mm (3×) and 6.5 mm (5×)
- Mean (mm) Δ(T3 − T1) of pupillary diameter ([1]; 1% topical): −0.9 mm
- Clinical Score −5 min ([2]; 0.1% topical): 0
- Clinical Score +115 min ([2]; 0.1% topical, listed as BOL): 2 (6×) and 3 (2×)
- Percentage of eyes with clinical score 2 ([2]; 0.1% topical, +115 min, 8 eyes): 75%
- Percentage of eyes with clinical score 3 ([2]; 0.1% topical, +115 min, 8 eyes): 25%
- Clinical Score −180 min ([2]; 0.1% topical): 0
- Percentage of eyes with clinical score 0 ([2]; 0.1% topical, −5 min, 8 eyes): 100%
- Percentage of eyes with clinical score 0 ([2]; 0.1% topical, −180 min, 8 eyes): 100%
- Clinical Score −5 min ([2]; 0.5% topical): 0
- Clinical Score +115 min ([2]; 0.5% topical, listed as BOL): 2 (5×) and 1 (3×)
- Percentage of eyes with clinical score 1 ([2]; 0.5% topical, +115 min, 8 eyes): 37.5%
- Percentage of eyes with clinical score 2 ([2]; 0.5% topical, +115 min, 8 eyes): 62.5%
- Clinical Score −180 min ([2]; 0.5% topical): 0
- Percentage of eyes with clinical score 0 ([2]; 0.5% topical, −5 min, 8 eyes): 100%
- Percentage of eyes with clinical score 0 ([2]; 0.5% topical, −180 min, 8 eyes): 100%
- Clinical Score −5 min ([2]; 1% topical): 0
- Clinical Score +115 min ([2]; 1% topical): 2
- Percentage of eyes with clinical score 2 ([2]; 1% topical, +115 min, 8 eyes): 100%
- Clinical Score −180 min ([2]; 1% topical): 0
- Percentage of eyes with clinical score 0 ([2]; 1% topical, −5 min, 8 eyes): 100%
- Percentage of eyes with clinical score 0 ([2]; 1% topical, −180 min, 8 eyes): 100%
- MPO activity in iris-ciliary body, statistical comparison with CTR (MPO; 0.1% topical): statistical significance
- Mean MPO Unit/g (MPO activity in iris-ciliary body samples) (MPO; 0.1% treatment): 0.971 Unit/g
- MPO Unit/g (raw data of MPO activity in iris-ciliary body samples) (MPO; 0.1% treatment): 1.04 Unit/g and 1.00 Unit/g and 1.14 Unit/g and 1.06 Unit/g and 1.22 Unit/g and 0.61 Unit/g and 1.05 Unit/g and 0.65 Unit/g
- MPO activity in iris-ciliary body, statistical comparison with CTR (MPO; 0.5% topical): statistical significance
- Mean MPO Unit/g (MPO activity in iris-ciliary body samples) (MPO; 0.5% treatment): 0.775 Unit/g
- MPO Unit/g (raw data of MPO activity in iris-ciliary body samples) (MPO; 0.5% treatment): 0.85 Unit/g and 0.93 Unit/g and 0.79 Unit/g and 1.03 Unit/g and 0.75 Unit/g and 0.74 Unit/g and 0.54 Unit/g and 0.58 Unit/g
- MPO activity in iris-ciliary body, statistical comparison with CTR (MPO; 1% topical): statistical significance
- Mean MPO Unit/g (MPO activity in iris-ciliary body samples) (MPO; 1% treatment): 0.542 Unit/g
- MPO Unit/g (raw data of MPO activity in iris-ciliary body samples) (MPO; 1% treatment): 0.66 Unit/g and 0.68 Unit/g and 0.49 Unit/g and 0.40 Unit/g and 0.34 Unit/g and 1.02 Unit/g and 0.31 Unit/g and 0.43 Unit/g
- Reversal of cytokine-sustained survival at higher cytokine concentrations (human eosinophils; GM-CSF 200 pM or IL-5 100 pM, data not shown): not, in fact, able to reverse cytokine-sustained survival
- IC50 (human eosinophils; GM-CSF 70 pM, read-out: IC50, inhibition of GM-CSF-induced eosinophil survival): 158 nM
- IC50 (human eosinophils; IL-5 30 pM, read-out: IC50, inhibition of interleukin-5-induced eosinophil survival): 399 nM
- CXCR4 receptor surface expression (CXCR4 receptor; 10 000 nM, significantly lower than 1000 nM dexamethasone): partially increased this receptor on the cell surface
- CXCR4 receptor surface expression (CXCR4 receptor; up to 5000 nM, vs vehicle-treated or control eosinophils): did not change CXCR4 receptor expression
- Induction of annexin I expression on the eosinophil cell surface (annexin I): partially effective only at the highest concentration
- Induction of apoptosis in thymocytes [3]: does not induce apoptosis
- Stability of the compound [4]: stable
